{
  "source": "paper PMC8760490",
  "about": "“Discovery of novel furanylbenzamide inhibitors that target oncogenic tyrosine phosphatase SHP2 in leukemia cells” (The Journal of Biological Chemistry, 2021)",
  "key": {"[1]": {"tested_on": "phospho-ERK1/2 (p-ERK1/2) in MOLM-13 AML cells", "assay": "p-ERK1/2 immunoblot, MOLM-13", "type": "cell-based", "conditions": "3 h; SBI-4668 3, 10, 30 μM; RMC-4550 1 μM", "procedure": "(§1) Because SHP2 activity is critical for ERK activation, we used phospho-ERK1/2 (p-ERK1/2) as a more direct readout of SHP2 inhibitor efficacy. […] This p-ERK rebound in MOLM-13 cells treated with RMC-4550 is reminiscent of previously reported data from human hepatoma Hep3B cells treated with SHP099 ([34]). We also tested the effects of SBI-4668 or RMC-4550 on two patient-derived AML samples (Fig. 4F).\nCells cultured in RPMI medium were treated as indicated in the legends to the figures. Total protein extracts were prepared in modified radioimmunoprecipitation assay lysis buffer (25 mM Tris–HCl, pH 7.4, 10% glycerol, 0.2% Triton X-100, 150 mM NaCl, 2 mM Na3VO4, and 1 mM EDTA) containing a protease inhibitor cocktail (Roche Applied Science). Equal amounts of protein were separated on 4 to 12% (p-ERK1/2 blots) or 4 to 20% (SHP2 blots) Bis–Tris gels by SDS-PAGE and transferred to nitrocellulose (p-ERK1/2 blots) or 0.2 μm polyvinylidene fluoride (SHP2 blots) membranes. Membranes were blocked in 5% dry milk (Bio-Rad) in Tris-buffered saline–Tween-20 (TBS–T) (0.1% v/v) for 1 h at RT. Protein-bound membranes were incubated with indicated primary antibody overnight at 4 °C. After washing three times with TBS-T, membranes were incubated for 1 h with horseradish peroxidase–conjugated secondary antibody and then visualized by an ECL Prime detection system (GE Healthcare). Immunoblotting experiments were carried out at least three times, and representative images are shown. Densitometric quantitation of immunoblots was performed using Image Studio Lite Software (LI-COR). Changes of phosphorylated ERK1/2 to total ERK1/2 ratios are expressed as percentage of the vehicle-treated controls. The following antibodies were used: Phospho-Erk1/2 Ab (catalog no.: 9101S; Cell Signaling); total Erk1/2 Ab (catalog no.: 9102S; Cell Signaling); SHP2 Ab (catalog no.: A301-544A; lot no.: 1; Bethyl); and GAPDH (14C10) mAb (catalog no.: 2118S; lot no.: 14; Cell Signaling)."}, "[2]": {"tested_on": "patient-derived AML cells", "assay": "Viability of patient-derived AML cells", "type": "cell-based, human", "conditions": "10 μM; 2, 4 or 6 days in culture", "description": "as §1\nPatient-derived AML cells were obtained from Carol Burian and Dr James Mason (Scripps MD Anderson Center) under approved Institutional Review Board protocol 13-6180. […] Final peripheral blood mononuclear cells were resuspended in Bambanker serum-free freezing medium (Wako Pure Chemical Industries, Ltd) and stored frozen before cell viability was assessed as described later.\n(§2) Viability of AML and esophageal carcinoma cells was assessed using the ATP-depletion assay CellTiter-Glo (Promega). Cells were harvested at 1 × 10^6/ml to 2 × 10^6 cells/ml with cell numbers determined by trypan blue using the Countess Cell counter (Thermo Scientific) and resuspended in culture media. […] Luminescence was read on a Tecan Spark Multimode Microplate Reader, and data were analyzed using GraphPad Prism software."}, "[3]": {"tested_on": "U-937 AML cells (G60R oncogenic mutation in SHP2)", "assay": "Cell viability (CellTiter-Glo), U-937", "type": "cell-based", "conditions": "3 days, 0.123 to 30 μM", "description": "Oncogenic gain-of-function mutations in SHP2 drive leukemogenesis in a significant number of leukemia patients. However, because of their unique mechanism of action, the existing SHP2 allosteric inhibitors lack activity against the most common SHP2 oncogenic variants. Thus, we tested whether our inhibitors could inhibit the growth of leukemia cells expressing oncogenic SHP2 variants. […] Thus, we tested both SBI-4668 and RMC-4550 on U-937 AML cells, which harbor a G60R oncogenic mutation in SHP2. We treated cells with either SBI-4668 or RMC-4550 at various concentrations, ranging from 0.123 to 30 μM (Fig. 5A). […] We also assessed the effects of SBI-4668 and RMC-4550 on ERK1/2 activation in the SHP2 mutant U-937 cell line. […]\nas §2"}, "[4]": {"tested_on": "phospho-ERK1/2 (p-ERK1/2) in U-937 AML cells", "assay": "p-ERK1/2 immunoblot, U-937", "type": "cell-based", "conditions": "SBI-4668 1, 3, 10, 30 μM, RMC-4550 1 μM", "description": "Oncogenic gain-of-function mutations in SHP2 drive leukemogenesis in a significant number of leukemia patients. However, because of their unique mechanism of action, the existing SHP2 allosteric inhibitors lack activity against the most common SHP2 oncogenic variants. Thus, we tested whether our inhibitors could inhibit the growth of leukemia cells expressing oncogenic SHP2 variants. […] Thus, we tested both SBI-4668 and RMC-4550 on U-937 AML cells, which harbor a G60R oncogenic mutation in SHP2. We treated cells with either SBI-4668 or RMC-4550 at various concentrations, ranging from 0.123 to 30 μM (Fig. 5A). […] We also assessed the effects of SBI-4668 and RMC-4550 on ERK1/2 activation in the SHP2 mutant U-937 cell line. Similar to the immunoblot experiments described for MOLM-13 cells above, U-937 AML cells were treated with either vehicle control (DMSO), SBI-4668 (1, 3, 10, or 30 μM), or with RMC-4550 (1 μM) for 24 h and processed for p-ERK1/2 immunoblot analysis (Fig. 5B).\nCells cultured in RPMI medium were treated as indicated in the legends to the figures. […] Densitometric quantitation of immunoblots was performed using Image Studio Lite Software (LI-COR). Changes of phosphorylated ERK1/2 to total ERK1/2 ratios are expressed as percentage of the vehicle-treated controls. […]"}, "[5]": {"tested_on": "mutant SHP2 (E76K) in live cells", "set-up": "method as in PMID 31953320, PMID 32744526", "conditions": "cellular thermal shift assay; cited from earlier work"}},
  "note": "pIC50: −log10 of the molar value.",
  "data": [
    {"smiles": "Cc1nc(N2CCC3(CC2)CO[C@@H](C)[C@H]3N)c(CO)nc1-c1cccc(Cl)c1Cl", "note": "[RMC-4550, reference compound]", "values": [
      {"measurement": "p-ERK1/2 levels, MOLM-13, 3 h", "setting": "[1]", "value": "highly effective in impeding ERK1/2 activation"},
      {"measurement": "growth of two patient-derived AML samples", "setting": "[2]", "value": "only affected the growth of sample 2"},
      {"measurement": "pIC50", "setting": "[3]", "value": 4.48},
      {"measurement": "p-ERK1/2 levels, U-937, 24 h", "setting": "[4]", "value": "not detectable"},
      {"measurement": "cellular target engagement with mutant SHP2", "setting": "[5]", "value": "greatly decreased cellular target engagement"}
    ]}
  ]
}
